In patent US12121530B2, “Composition and methods for treating articulating joint disorders with nucleoside reverse transcriptase inhibitors” (RHODE ISLAND HOSPITAL, priority 2018, dated 2024):
Entries after “also recorded” stand apart in the source; their conditions may differ.

Columns and labels:
[1] = test system: mouse primary chondrocytes; experiment: RT-qPCR gene expression in mouse primary chondrocytes treated with 3TC or FTC at various dosages; format: cell-based; details: mouse chondrocytes (FIG. 3H), western blot Line-1-ORF1
[2] = test system: human chondrocyte cell line-C28; experiment: gene expression in human chondrocyte cell line C28 treated with 3TC; format: cell-based
Description: Both miRNA and mRNA were extracted using miRNeasy Mini Kit (Qiagen®, Germantown, Md., USA) and reversely transcribed using miScriptIIRT Kit (Qiagen®, Germantown, Md., USA) according to manufacturer's instruction. qPCR was performed using SYBR Green PCR master mix (Qiagen®, Germantown, Md., USA) on a Bio-Rad CFX96 real-time PCR detection system (Bio-Rad®, Hercules, Calif., USA). Amplification conditions are as follows: 95° C. for 10 min, 40 cycles of 95° C. for 10″, 55° C. for 30″, and 72° C. for 30″. 18S ribosomal or GAPDH RNA was used as an internal control gene to normalize the mRNAs level. The ubiquitously expressed snRNA U6 was used as an endogenous control for miRNAs level. Primers were synthesized by Integrated DNA Technologies (http://www.idtdna.com). The primers for miR-365 were purchased from Qiagen. Fold changes of mRNA and miRNAs were calculated by the 2^^(ΔΔCt) method and normalized to 18S/GAPDH or U6 snRNA, respectively. […]

[3] = test system: C28 transiently over-express miR-365; experiment: C28 transiently over-expressing miR-365 treated with 3TC, RT-qPCR; format: cell-based, human
Description: Cells were seeded onto desired size plates to reach 70-90% confluence and transfected with miR-365 mimic or miRNA mimic negative control or miR-365 inhibitor or inhibitor negative control (Dharmacon®, Lafayette, Colo., USA). Lipofectamine 3000 (Invitrogen®, Waltham, Mass., USA) was used as transfection reagents. Medium is changed 24 hrs after transfection. 48 hrs post transfection, cells were lysated in either QIAzol for RNA purification and real-time PCR analysis or ice-cold lysis buffer containing protease inhibitor and phosphatase inhibitor for western blot analysis. MiR-365 mimic, miRNA mimic negative control, miR-365 inhibitor and inhibitor negative control were typically used at a final concentration of 25 nM unless otherwise stated.
Both miRNA and mRNA were extracted using miRNeasy Mini Kit (Qiagen®, Germantown, Md., USA) and reversely transcribed using miScriptIIRT Kit (Qiagen®, Germantown, Md., USA) according to manufacturer's instruction. qPCR was performed using SYBR Green PCR master mix (Qiagen®, Germantown, Md., USA) on a Bio-Rad CFX96 real-time PCR detection system (Bio-Rad®, Hercules, Calif., USA). Amplification conditions are as follows: 95° C. for 10 min, 40 cycles of 95° C. for 10″, 55° C. for 30″, and 72° C. for 30″. 18S ribosomal or GAPDH RNA was used as an internal control gene to normalize the mRNAs level. The ubiquitously expressed snRNA U6 was used as an endogenous control for miRNAs level. Primers were synthesized by Integrated DNA Technologies (http://www.idtdna.com). The primers for miR-365 were purchased from Qiagen. Fold changes of mRNA and miRNAs were calculated by the 2^^(ΔΔCt) method and normalized to 18S/GAPDH or U6 snRNA, respectively.

miR-365 Tg mice = experiment: primary OA model: miR-365 Tg mice given oral 3TC for 4 months; format: in vivo, mouse; details: for tibial subchondral BV/TV / connectivity density of subchondral bone / trabecular number of subchondral bone / trabecular separation of subchondral bone: microCT
[4] = human chondrocytes C28, RNA level, various dosages
[5] = human chondrocytes over-expressing miR-365, various concentrations
[6] = miR-365 Tg mice, 3TC for 4 months, RT-qPCR
[7] = miR-365 Tg mice, 3TC for four months

Q: Nc1ccn([C@@H]2CS[C@H](CO)O2)c(=O)n1 [3TC, lamivudine] was tested. Which “L1 expression at protein level” value [1] did it give?
A: The value was “inhibited”.

Q: What about the Acan expression [2, 4] of the same compound?
A: Its Acan expression is “promotes; also recorded: stimulated”.

Q: What about the Adamts5 expression [2, 4] of the same compound?
A: Its Adamts5 expression is “inhibited”.

Q: What about the “COL10 (COL10A1) expression” value [2, 4] of the same compound?
A: The value was “inhibited”.

Q: What about the IHH expression [2, 4] of the same compound?
A: Its IHH expression is “inhibits”.

Q: What about the Line-1 expression [2, 4] of the same compound?
A: Its Line-1 expression is “inhibited”.

Q: And the MMP13 expression [2, 4]?
A: The MMP13 expression was “inhibited”.

Q: What about the COL2A1 expression ([2]; human chondrocytes, RNA level) of the same compound?
A: Its COL2A1 expression is “stimulated”.

Q: What about the “ACAN suppression by miR-365” value [3, 5] of the same compound?
A: Its value is “rectifies”.

Q: What about the “miR-365 induced up-regulation of ADAMTS5” value [3, 5] of the same compound?
A: The value was “completely abolishes”.

Q: And the “miR-365 induced up-regulation of COL10” value [3, 5]?
A: Its value is “completely abolishes”.

Q: And the “miR-365 induced up-regulation of IHH” value [3, 5]?
A: The value was “completely abolishes”.

Q: And the “miR-365 induced up-regulation of LINE-1” value [3, 5]?
A: The value was “completely abolishes”.

Q: And the “effect of miR-365 on L1, ADAMTS5, IHH, COL10A1 and ACAN levels” value ([3]; miR-365 transfected human chondrocytes (FIG. 3O-3T))?
A: Its value is “abolished and in some cases even reversed”.

Q: What about the “early onset of OA / OA pathogenesis (Safranin O staining, OARSI quantification)” value (miR-365 Tg mice; 6-month-old miR-365 Tg mice, 3TC for 4 months) of the same compound?
A: The value was “abolished; also recorded: prevented early onset of OA”.

Q: And the “tibial subchondral BV/TV” value (miR-365 Tg mice; Cre control mice, 3TC 4 months)?
A: The value was “did not alter”.

Q: And the “connectivity density of subchondral bone” value (miR-365 Tg mice; Cre mice, 3TC 4 months)?
A: The value was “increased”.

Q: What about the “trabecular number of subchondral bone” value (miR-365 Tg mice; Cre mice, 3TC 4 months) of the same compound?
A: Its value is “increased”.

Q: And the “trabecular separation of subchondral bone” value (miR-365 Tg mice; Cre mice, 3TC 4 months)?
A: The value was “decreased”.

Q: And the “subchondral BMD” value (miR-365 Tg mice; miR-365 Tg mice, 3TC 4 months)?
A: The value was “without decreasing”.

Q: And the “connectivity density of subchondral bone” value (miR-365 Tg mice; miR-365 Tg mice, 3TC 4 months)?
A: Its value is “no effect”.

Q: And the “tibial subchondral BV/TV” value (miR-365 Tg mice; miR-365 Tg mice, 3TC 4 months)?
A: The value was “did not alter”.

Q: And the “trabecular number of subchondral bone” value (miR-365 Tg mice; miR-365 Tg mice, 3TC 4 months)?
A: The value was “no effect”.

Q: And the “trabecular separation of subchondral bone” value (miR-365 Tg mice; miR-365 Tg mice, 3TC 4 months)?
A: Its value is “no effect”.

Q: And the “Acan levels in articular cartilage” value (miR-365 Tg mice; [6])?
A: The value was “unchanged”.

Q: What about the “Adamts5 expression in articular cartilage” value (miR-365 Tg mice; [6]) of the same compound?
A: The value was “significantly inhibited; also recorded: significantly suppressed”.

Q: What about the “Alu expression in articular cartilage” value (miR-365 Tg mice; [6]) of the same compound?
A: Its value is “significantly suppressed”.

Q: And the “Col10 (Col10a1) expression in articular cartilage” value (miR-365 Tg mice; [6])?
A: The value was “significantly inhibited; also recorded: significantly suppressed”.

Q: And the “Inf-α expression in articular cartilage” value (miR-365 Tg mice; [6])?
A: The value was “significantly inhibited”.

Q: What about the “Line-1 (Line-1-ORF2) expression in articular cartilage” value (miR-365 Tg mice; [6]) of the same compound?
A: Its value is “significantly inhibited; also recorded: abolished; also recorded: significantly suppressed”.

Q: What about the “Sqstm1 expression in articular cartilage” value (miR-365 Tg mice; [6]) of the same compound?
A: Its value is “inhibition was abolished; also recorded: significantly up-regulated”.

Q: What about the “Zc3hav1 (Zac3hav1) expression in articular cartilage” value (miR-365 Tg mice; [6]) of the same compound?
A: The value was “inhibition was abolished; also recorded: significantly up-regulated”.

Q: What about the “Dicer mRNA level in cartilage” value (miR-365 Tg mice; [7]) of the same compound?
A: The value was “inhibition was abolished”.

Q: What about the “Prkdc mRNA level in cartilage” value (miR-365 Tg mice; [7]) of the same compound?
A: The value was “inhibition was abolished”.

Q: What about the “miR-365 expression in articular cartilage” value (miR-365 Tg mice; miR-365 Tg mice, oral 3TC for 4 months, RT-qPCR) of the same compound?
A: Its value is “abolished; also recorded: significantly suppressed”.

Q: And the “Ihh expression in vivo” value (miR-365 Tg mice; mice treated with 3TC from 2-month old till 6-month old)?
A: The value was “suppresses only Line-1 but not Ihh”.
